Results reported in paper PMC9274755, “KDM4 inhibitor SD49-7 attenuates leukemia stem cell via KDM4A/MDM2/p21^CIP1 axis” (Theranostics, 2022).

Experiments:
KDM4C = molecular target: T1, KDM4C (Homo sapiens, UniProt Q9H3R0); test: SPR (Biacore T200), protein immobilized on CM5 chip; assay type: binding
T1 sequence (Q9H3R0 1-1056): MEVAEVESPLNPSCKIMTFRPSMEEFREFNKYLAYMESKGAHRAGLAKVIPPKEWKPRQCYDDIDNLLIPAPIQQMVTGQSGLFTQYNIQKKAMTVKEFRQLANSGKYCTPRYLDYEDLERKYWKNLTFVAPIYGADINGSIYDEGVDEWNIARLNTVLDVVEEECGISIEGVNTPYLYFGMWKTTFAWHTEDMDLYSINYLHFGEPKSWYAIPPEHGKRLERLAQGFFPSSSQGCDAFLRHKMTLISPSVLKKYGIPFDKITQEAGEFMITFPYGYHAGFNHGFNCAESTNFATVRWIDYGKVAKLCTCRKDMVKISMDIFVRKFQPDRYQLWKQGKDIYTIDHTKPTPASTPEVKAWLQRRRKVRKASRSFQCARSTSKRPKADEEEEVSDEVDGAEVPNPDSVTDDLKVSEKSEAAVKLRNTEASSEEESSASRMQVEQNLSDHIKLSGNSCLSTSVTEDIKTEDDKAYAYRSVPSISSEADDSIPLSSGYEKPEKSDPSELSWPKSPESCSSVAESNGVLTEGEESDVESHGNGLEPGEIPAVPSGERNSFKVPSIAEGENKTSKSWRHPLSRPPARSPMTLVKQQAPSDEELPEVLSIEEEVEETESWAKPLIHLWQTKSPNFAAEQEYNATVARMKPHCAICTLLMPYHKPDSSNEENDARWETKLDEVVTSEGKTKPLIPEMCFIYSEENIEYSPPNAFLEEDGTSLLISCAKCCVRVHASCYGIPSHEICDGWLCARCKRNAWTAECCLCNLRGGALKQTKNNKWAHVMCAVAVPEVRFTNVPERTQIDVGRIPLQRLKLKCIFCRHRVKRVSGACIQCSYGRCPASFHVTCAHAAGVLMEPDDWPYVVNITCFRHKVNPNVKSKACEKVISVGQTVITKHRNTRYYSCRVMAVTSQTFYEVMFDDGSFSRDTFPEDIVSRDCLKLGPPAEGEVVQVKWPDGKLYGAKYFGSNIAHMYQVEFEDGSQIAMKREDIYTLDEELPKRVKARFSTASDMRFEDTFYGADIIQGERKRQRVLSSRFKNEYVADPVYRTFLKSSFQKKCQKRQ

KDM4A = molecular target: T2, KDM4A (Homo sapiens, UniProt O75164); test: as above; assay type: binding
T2 sequence (O75164 2-1064): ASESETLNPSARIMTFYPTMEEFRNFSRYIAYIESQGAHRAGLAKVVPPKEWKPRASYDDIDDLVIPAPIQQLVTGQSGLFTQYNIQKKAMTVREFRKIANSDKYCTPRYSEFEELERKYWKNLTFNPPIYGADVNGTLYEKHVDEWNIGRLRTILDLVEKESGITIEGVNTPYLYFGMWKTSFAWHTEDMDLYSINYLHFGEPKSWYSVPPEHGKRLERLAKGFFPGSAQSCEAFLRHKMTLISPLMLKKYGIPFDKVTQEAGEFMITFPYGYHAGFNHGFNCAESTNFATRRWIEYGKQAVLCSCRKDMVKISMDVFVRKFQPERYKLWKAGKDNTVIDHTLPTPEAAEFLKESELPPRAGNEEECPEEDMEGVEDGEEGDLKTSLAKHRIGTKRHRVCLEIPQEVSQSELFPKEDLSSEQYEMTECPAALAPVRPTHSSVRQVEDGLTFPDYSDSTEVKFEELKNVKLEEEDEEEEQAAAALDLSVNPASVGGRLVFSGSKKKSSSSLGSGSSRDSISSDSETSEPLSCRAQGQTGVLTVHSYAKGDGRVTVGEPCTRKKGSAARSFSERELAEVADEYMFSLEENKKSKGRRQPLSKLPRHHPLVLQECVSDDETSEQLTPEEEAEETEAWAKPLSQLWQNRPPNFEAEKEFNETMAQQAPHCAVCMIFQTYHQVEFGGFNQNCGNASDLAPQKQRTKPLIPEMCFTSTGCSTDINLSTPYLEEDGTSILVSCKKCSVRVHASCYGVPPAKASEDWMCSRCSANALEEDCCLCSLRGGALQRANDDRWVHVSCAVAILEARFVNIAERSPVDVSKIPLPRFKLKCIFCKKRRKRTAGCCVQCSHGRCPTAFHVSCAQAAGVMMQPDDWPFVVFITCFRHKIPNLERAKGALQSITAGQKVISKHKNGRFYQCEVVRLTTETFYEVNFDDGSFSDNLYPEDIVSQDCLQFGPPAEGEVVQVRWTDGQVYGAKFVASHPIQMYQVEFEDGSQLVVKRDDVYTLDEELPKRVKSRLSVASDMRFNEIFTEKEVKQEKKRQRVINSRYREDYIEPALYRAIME

Row | Kd (KDM4C) [nM] | Kd (KDM4A) [nM] | SMILES
1 | 2590 | 18000 | CC(C)C(=O)NC(c1ccco1)c1ccc2cccnc2c1O (stereo not shown) [SD70]
2 | 1060 | 988 | O=C(N/N=C/c1c(O)ccc2ccccc12)c1ccccc1O [SD49-7]
